Test results from patent US6227295A, “High temperature hydraulic fracturing fluid” (Schlumberger Technology Corporation, priority 1999, dated 2001).
Where “and” joins values, the source holds several entries; their conditions need not be identical. Equal values may be shown once. Read-outs that look alike come from different tables or passages of the source.

How the values were obtained:
[1] = cited from earlier work
[2] = pH of organic amine stabilizers (Table 1, mostly determined experimentally); assay type: physicochemical; conditions: pH in water, some from the literature
Text: The fluid also comprises an organic amine stabilizing agent that has a first pKa or a pH in water of at least about 9.5. The organic amine preferably has from 1-20 carbon atoms, more preferably 1-10 carbon atoms. In one particularly preferred embodiment, the organic amine has the formula: […]
Table 1 below lists a number of organic amines that can be used as stabilizers in the present invention. The pKa values in the table are from the literature; the pH values in the table were mostly determined experimentally, although some were taken from the literature.

[3] = Typical pH of fracturing fluid with TEPA as the stabilizer; assay type: physicochemical; conditions: TEPA used as the stabilizer
Text: where R1 is C1 -C4 alkyl and n is from 1-6. Preferably R1 is ethylene and n is 4. This preferred amine, tetraethylenepentamine (TEPA), is available from Dow Chemical.

[4] = Viscosity retention of CMHPG linear gels after aging at 325° F. (Example 1, Table 2); assay type: physicochemical; conditions: TEPA 5 gpt, no secondary additive
Experimental: Aqueous polymer solutions were aged in an air oven at elevated temperatures, and their viscosity was measured before and after the aging. […] The base gels were made in 1 liter quantities, and stored in Nalgene-type plastic bottles. The viscosity of each batch of base gel was measured at 70° F. on a Contraves LS-30 viscometer to establish the baseline for that batch.

| SMILES | pKa [1] | pH [2] | other results |
| --- | --- | --- | --- |
| CC(N)CN (stereo not drawn) [1,2-diaminopropane] | 9.8 | – | pKa ([1]; second value): 6.6 |
| NCCCN [1,3-diaminopropane] | 10.9 | – | pKa ([1]; second value): 9.0 |
| NCCCCN [1,4-diaminobutane] | 11.2 | – | pKa ([1]; second value): 9.7 |
| NCCCNCCNCCCN [BAPED, N,N'-bis(3-aminopropyl)ethylene-diamine] | – | 11.72 | – |
| CCCCCCCCCCCCN [DDA, dodecylamine] | – | 10.22 | – |
| CCN(O)CC [DHA, N,N-diethylhydroxylamine] | – | 11.06 | – |
| CC(COCCCN)COCCCN [DPA-12, di-(gamma-aminopropylether) of 2-methyl-1,3-propane diol] | – | 11.41 | – |
| NCCCOCCOCCCN [NDPA-10, di-(gamma-aminopropylether) of ethylene glycol] | – | 11.58 | – |
| NCCCOCCCCOCCCN [NDPA-12, di-(gamma-aminopropylether) of 1,4-butane diol] | – | 11.55 | – |
| NCCN(CCN)CCN [TAA, tris-(2-aminoethyl)amine] | – | 11.25 | – |
| NCCNCCN [diethylenetriamine] | – | 11.42 | – |
| NCCN [ethylenediamine] | 10.7 | – | pKa ([1]; second value): 7.6 |
| NCCCCCCN [hexamethylenediamine] | 11.9 | – | – |
| CCCCN [n-butylamine] | 10.8 | – | – |
| CCCCCCCCCCN [n-decylamine] | 10.6 | – | – |
| NCCNCCNCCNCCN [tetraethylenepentamine] | – | 11.29 | pH of the fluid [3]: about 10.8; % of initial viscosity after 2 hrs. ([4]; 325° F.): 93% and 63%; pH (Comments) [4]: 11.50 |
| NCCCCN [tetramethylenediamine] | 10.7 | – | – |
